From EP4578857A1, “CRYPTOLEPINE SALT DERIVATIVE, AND PREPARATION METHOD THEREFOR AND USE THEREOF” (Nankai University, priority 2023, dated 2025)
Like-named read-outs stand apart in the source and are kept apart here.

Key:
Format in all cases: in vivo
[1] = system: tobacco Mosaic virus (TMV); experiment: Anti-TMV activity: live protection function; settings: for inhibition at 500 µg/mL: Tobacco mosaic virus, read-out: Relative inhibition rate (%) Live protection function; for antiTMV activity / TMV activity: 500µg/mL, Table 4 (all three modes); for antiTMV activity: compared with commercial Ningnanmycin; for TMV activity: compared with ribavirin; for Relative inhibition rate (%) Live protection function: Treatment dose 500 mg/L, tobacco Xanthi nc sprayed 24h before inoculation, virus 10µg/mL, disease spots counted after 3 days
Protocol: (§1) Determination of anti-tobacco Mosaic virus (TMV) activity by the following procedure:
(§2) The virus crude extract was centrifuged with polyethylene glycol at twice and refrigerated at 4°C for use. The absorbance of 260nm wavelength was determined by ultraviolet spectrophotometer, and the virus concentration was calculated according to the formula. Virus concentration(mg/ml) = (A260 × dilution ratio)(/E)^0.10 1cm^260nm . [formula]
(§3) After weighing, cryptolepine salt derivative, ningnanmycin and the original drug of ribavirin were dissolved in DMF to obtain 1×10^5µg/mL mother solution, and then diluted to the required concentration with 1‰ Tween 80 aqueous solution.
Select the 3-5 leaf stage of tobacco Xanthi nc with uniform growth, spray the whole plant, repeat each treatment 3 times, and set 1‰ Tween80 aqueous solution as control. 24h later, the leaf surface was coated with emery (500 mesh), the disease venom was dipped with a brush, and the whole leaf surface was gently rubbed twice along the direction of the branch pulse by using the brush, the leaf was supported by palm of hand, the virus concentration was 10µg/mL, and the leaf was washed by water after inoculation. After 3 days, the number of disease spots was recorded and the prevnetion and control effect was calculated.

[2] = system: tobacco Mosaic virus (TMV); experiment: Anti-TMV activity: live treatment effect; settings: for inhibition at 500 µg/mL: Tobacco mosaic virus, 72 h, read-out: Relative inhibition rate (%) Live treatment effect; for Relative inhibition rate (%) Live treatment effect: Treatment dose 500 mg/L, tobacco Xanthi nc inoculated (virus 10µg/mL), then sprayed, disease spots counted after 3 days
Protocol: as §1, §2, §3
Select the 3-5 leaf stage of tobacco Xanthi nc with uniform growth, use a brush to vaccinate the virus in the whole leaf, the virus concentration is 10µg/mL, and the leaf was washed with running water after inoculation. After the leaves were dried, the whole plant was sprayed with test sample, repeated 3 times every treatment, and 1‰ Tween 80 aqueous solution was set as control. After 3 days, the number of disease spots was recorded and the prevnetion and control effect was calculated.

[3] = system: tobacco Mosaic virus (TMV); experiment: Anti-TMV activity: living passivation activity test; settings: for inhibition at 500 µg/mL: Tobacco mosaic virus, read-out: Relative inhibition rate (%) Living passivation activity test; for Relative inhibition rate (%) Living passivation activity test: Treatment dose 500 mg/L, sample mixed with virus juice for 30min, then inoculated on tobacco Xanthi nc, virus 20µg/mL, 3 days
Protocol: as §1, §2, §3
Select the 3-5 leaf stage of tobacco Xanthi nc with uniform growth, mix the test sample agent with the same volume of virus juice to passivate for 30min, friction inoculation, virus concentration 20µg/mL, the leaf was washed with running water after inoculation, repeat 3 times, set 1‰ Tween 80 aqueous solution as control. 3 days later, the number of disease spots was calculated. [formula]
Anti-tobacco Mosaic virus passivation activity test of all compounds was at a treatment dose of 500µg/mL. The positive control was the commercial anti-plant virus agent viriazole.

[4] = system: rice sheath blight strains; experiment: Bactericidal activity test: resistance to rice sheath blight (live pot test); settings: for pest or weed control at 400 µg/mL: Oryza sativa, 144 h
Protocol: Bactericidal activity test, the determination procedure is as follows: Test of resistance to rice sheath blight: Select uniformly growing rice seedlings and spray them on the leaves at the set concentration, set a water sprayring group as blank control, every treatment was repeated twice. After 24h, the rice seedlings were inoculated with rice sheath blight strains and placed at room temperature (25±4°C) for normal management after inoculation. The prevention and control effect was investigated by visual inspection 6 days after inoculation.

[5] = read-out: Resistance to rice sheath blight (%)/400mg/L
[6] = read-out: bactericidal activity against rice sheath blight
[7] = 400mg/L leaf spray on rice seedlings, inoculated after 24h, visual inspection 6 days after inoculation
[8] = 400mg/L leaf spray on rice seedlings, inoculated after 24h, visual inspection 6 days after inoculation, read-out: Resistance to rice sheath blight (%)/400mg/L

SMILES	inhibition at 500 µg/mL [1] [%]	inhibition at 500 µg/mL [2] [%]	inhibition at 500 µg/mL [3] [%]	pest or weed control at 400 µg/mL [4, 5] [%]	pest or weed control at 400 µg/mL [4, 6] [%]	antiTMV activity [1]	TMV activity [1]	Relative inhibition rate (%) Live protection function [1] [%]	Relative inhibition rate (%) Live treatment effect [2] [%]	Relative inhibition rate (%) Living passivation activity test [3] [%]	Resistance to rice sheath blight (%)/400mg/L [4, 7] [%]	pest or weed control at 400 µg/mL [4, 8] [%]	pest or weed control at 400 µg/mL ([4]; live pot test, summary of Table 5 (400mg/L), read-out: bactericidal activity against rice sheath blight) [%]
Cc1ccc(S(=O)(=O)n2c3ccccc3c3c2cc2ccc(C)cc2[n+]3C)cc1 [Example 16]	28.1 ± 4.5	30.1 ± 1.1	18.9 ± 0.8	95 ± 5	> 95	–	–	–	–	–	–	–	–
Cc1ccc(S(=O)(=O)n2c3ccccc3c3c2cc2cc(Br)ccc2[n+]3C)cc1 [Example 13]	50.8 ± 1	52 ± 2.4	46.1 ± 3.9	35 ± 5	–	comparable to that of commercial Ningnanmycin	better TMV activity than the ribavirin	–	–	–	–	–	–
Cc1ccc(S(=O)(=O)n2c3ccc(Br)cc3c3c2cc2ccccc2[n+]3C)cc1 [Example 6]	48.4 ± 4.7	45.2 ± 3.6	41 ± 2.2	40	–	comparable to that of commercial Ningnanmycin	better TMV activity than the ribavirin	–	–	–	–	–	–
CCCCCNc1c2ccccc2[n+](C)c2c1[nH]c1ccccc12 [Example 24]	–	–	–	–	–	–	–	36.9±3.7	30.3±0.8	35.2±1.0	30±0	–	–
Cc1ccc(S(=O)(=O)n2c3ccccc3c3c2cc2ccc(Cl)cc2[n+]3C)cc1 [Example 17]	30.2 ± 1.7	23.5 ± 2.1	33.1 ± 1.1	40	–	–	–	–	–	–	–	–	–
Cc1ccc(S(=O)(=O)n2c3ccccc3c3c2cc2cc(Cl)ccc2[n+]3C)cc1 [Example 12]	23.4 ± 3.3	19.1 ± 1	20.3 ± 2.1	40	–	–	–	–	–	–	–	–	–
C[n+]1c2ccccc2c(NCCCC2CCCCC2)c2[nH]c3ccccc3c21 [Example 31]	29.5 ± 1.3	28.9 ± 1.1	30.5 ± 0.2	–	–	–	–	–	–	–	–	25 ± 5	–
CC(C)CCNc1c2ccccc2[n+](C)c2c1[nH]c1ccccc12 [Example 26]	43.1 ± 3.4	45.4 ± 1.9	37 ± 3	–	–	–	better TMV activity than the ribavirin	–	–	–	–	35 ± 5	–
CN1CCC(CNc2c3ccccc3[n+](C)c3c2[nH]c2ccccc23)CC1 [Example 45]	30.7 ± 2.6	28.1 ± 0.3	25.6 ± 1.1	–	–	–	–	–	–	–	–	30	–
Cc1ccc(S(=O)(=O)n2c3ccccc3c3c2cc2ccccc2[n+]3CC(C)(C)C)cc1 [Example 20]	51.3 ± 3.5	48.5 ± 3	53 ± 2.1	55 ± 5	> 50	comparable to that of commercial Ningnanmycin	better TMV activity than the ribavirin	–	–	–	–	–	–
C[n+]1c2ccccc2c(NCCCCN)c2[nH]c3ccccc3c21 [Example 34]	50.3 ± 2.1	43.9 ± 2	41.2 ± 4.6	–	–	comparable to that of commercial Ningnanmycin	better TMV activity than the ribavirin	–	–	–	–	20	–
Cc1ccc(S(=O)(=O)n2c3ccccc3c3c2cc2cc(C)ccc2[n+]3C)cc1 [Example 9]	23.8 ± 3.5	19.1 ± 0.1	23.1 ± 0.9	70	> 50	–	–	–	–	–	–	–	–
CN1CCC(Nc2c3ccccc3[n+](C)c3c2[nH]c2ccccc23)CC1 [Example 44]	27.3 ± 4.4	33.1 ± 0.3	35.3 ± 2.1	–	–	–	–	–	–	–	–	55 ± 5	> 50
Cc1ccc(S(=O)(=O)n2c3ccc(I)cc3c3c2cc2ccccc2[n+]3C)cc1.[Cl-] [Example 7]	–	–	–	–	–	–	better TMV activity than the ribavirin	44.5±0.4	43.0±3.5	47.7±3.1	40±0	–	–
Cc1ccc(S(=O)(=O)n2c3ccccc3c3c2cc2ccccc2[n+]3Cc2ccccc2)cc1 [Example 21]	41.4 ± 3.9	32.3 ± 1.8	35.9 ± 4	40	–	–	better TMV activity than the ribavirin	–	–	–	–	–	–
CC(N)CNc1c2ccccc2[n+](C)c2c1[nH]c1ccccc12 (stereo not drawn) [Example 35]	41 ± 2.4	48 ± 1.5	44.3 ± 2.9	–	–	–	better TMV activity than the ribavirin	–	–	–	–	25 ± 5	–
Cc1ccc(S(=O)(=O)n2c3ccc(C)cc3c3c2cc2ccccc2[n+]3C)cc1 [Example 2]	26.5 ± 3	20.5 ± 0.9	25.3 ± 2.3	40	–	–	–	–	–	–	–	–	–
CN(C)CC(C)(C)CNc1c2ccccc2[n+](C)c2c1[nH]c1ccccc12 [Example 39]	25.4 ± 3.8	30.1 ± 0.2	28.9 ± 2.1	–	–	–	–	–	–	–	–	25 ± 5	–
Cc1ccc(S(=O)(=O)n2c3ccccc3c3c2cc2ccccc2[n+]3CC2CC2)cc1 [Example 18]	45.6 ± 0.9	38.7 ± 2.4	40.8 ± 2.9	45 ± 5	> 50	–	better TMV activity than the ribavirin	–	–	–	–	–	–
CCCCCCCCCCCCNc1c2ccccc2[n+](C)c2c1[nH]c1ccccc12 [Example 25]	–	–	–	–	–	–	–	27.3±3.0	22.1±1.1	35.1±0.1	20±0	–	–
CCCNc1c2ccccc2[n+](C)c2c1[nH]c1ccccc12 [Example 23]	33 ± 2.9	30.1 ± 1	35.2 ± 1.1	–	–	–	–	–	–	–	–	30	–
